Assay results reported in US20220409620A1, “REDUCING IMMUNOGENICITY TO PEGLOTICASE” (Horizon Pharma Rheumatology LLC, priority 2016, published 2022).

Test system: adult patients with uncontrolled gout
Experiment: Serum uric acid (sUA) levels and sUA responder rate, open-label study of pegloticase with MTX (MIRROR OL)
Format: in vivo, human
Details: mITT Population
Experimental: The primary objective is to estimate the response rate during Month 6 (Weeks 20, 22, and 24), as measured by the sustained normalization of serum uric acid (SUA) to <6 mg/dL for at least 80% of the time during Month 6 in subjects receiving KXX with MTX.
The primary efficacy outcome endpoint is the sustained normalization of SUA to <6 mg/dL for at least 80% of the time during month 6 (weeks 20, 22, and 24) in subjects receiving KXX with MTX. […] Participants who achieve this endpoint were classified as “responders.” Serum uric acid (SUA) responders may also be defined as participants achieving and maintaining SUA <6 mg/dL for at least 80% of the time during Month 6 (Weeks 20, 22, and 24).
Blood samples may be collected prior to each pegloticase infusion for measurement of SUA levels using the Beckman Coulter AU System Uric Acid procedure. Participants were declared “non-responders” if there were SUA measures >6 mg/dL at 2 consecutive study visits beginning with the week 2 visit. […] This assumption and subsequent discontinuation of pegloticase was consistent with the protocol of large phase III randomized controlled trials and the product label. A formal stopping rule was 2 occasions of SUA levels of greater than 6 mg/dL.
Clinical Chemistry—Blood samples were collected prior to each pegloticase infusion for measurement of SUA levels (primary efficacy parameter) using the Beckman Coulter AU System Uric Acid procedure. In this procedure uric acid is converted to hydrogen peroxide. Hydrogen peroxide reacts with reagent to produce a chromophore which is read bichromatically at 660/800 nm. The amount of dye formed is proportional to the uric acid concentration in the sample.
Serum samples for measurement of SUA levels were collected at the Screening Visit, the Week −4 Visit (prior to the first dose of MTX), and the Week −2 Visit during the MTX Run-in Period; within 48 hours prior to each pegloticase infusion and after the end of each pegloticase infusion prior to discharge from the site during the Pegloticase+IMM Period; at the non-infusion Week 52/End of Study/Early Termination Visits and at the Post Treatment 3 and 6 Month Follow-up Visits. Additional serum samples for SUA levels were collected at optional non-infusion (Frequent Sampling) Visits at Weeks 1 and 7. […] Subjects with SUA level >6 mg/dL at 2 consecutive visits beginning at Week 2 visit discontinued treatment, completed the End of Pegloticase Infusion Visit procedures within 2 weeks and continued the subject visits according to the protocol (without treatment).
Efficacy analyses were performed using the modified intention-to-treat (mITT) population, defined as all enrolled subjects who received ≥1 dose of pegloticase. The proportion of Month 6 responders was summarized, along with a 95% confidence interval for the proportion. The proportion of Month 3 and overall (Months 3 and 6 combined) responders was analyzed similarly.
A subject was declared a non-responder if the subject had SUA level >6 mg/dL at 2 consecutive study visits beginning with the Week 2 Visit. In addition, a subject who withdraws from study treatment for any reason after the first dose of pegloticase in the KXX+MTX Period and prior to Month 6 (for the primary endpoint) or Month 3 (for the secondary endpoint) was considered a non-responder if SUA values were not collected at the planned time points.
Patients were administered oral MTX (15 mg/week) and folate (1 mg/day) 4 weeks prior to the first pegloticase infusion (Day 1) and throughout the pegloticase treatment period. Blood was drawn prior to each infusion to measure sUA level, monitor clinical parameters, and examine for ADA development. All patients followed typical IR prophylaxis protocols (fexofenadine one day before and the morning of each infusion and acetaminophen and IV corticosteroid the morning of each infusion).

## pegloticase
Week 20 - Post-Infusion
  Serum Uric Acid, Change from Baseline, Mean (SD): −8.97 (2.810) mg/dL
  Serum Uric Acid, Change from Baseline, Median: -8.80 mg/dL
  Serum Uric Acid, Observed, Mean (SD): 0.30 (0.000) mg/dL
  Serum Uric Acid, Observed, Median: 0.30 mg/dL
  sUA <6 mg/dL, n (%): 11 (100%)
Week 20 - Pre-Infusion
  Serum Uric Acid, Change from Baseline, Mean (SD): −8.97 (2.810) mg/dL
  Serum Uric Acid, Change from Baseline, Median: -8.80 mg/dL
  Serum Uric Acid, Observed, Mean (SD): 0.30 (0.000) mg/dL
  Serum Uric Acid, Observed, Median: 0.30 mg/dL
  sUA <6 mg/dL, n (%): 11 (100%)
Week 22 - Post-Infusion
  Serum Uric Acid, Change from Baseline, Mean (SD): −8.97 (2.810) mg/dL
  Serum Uric Acid, Change from Baseline, Median: -8.80 mg/dL
  Serum Uric Acid, Observed, Mean (SD): 0.30 (0.000) mg/dL
  Serum Uric Acid, Observed, Median: 0.30 mg/dL
  sUA <6 mg/dL, n (%): 11 (100%)
Week 22 - Pre-Infusion
  Serum Uric Acid, Change from Baseline, Mean (SD): −8.97 (2.810) mg/dL
  Serum Uric Acid, Change from Baseline, Median: -8.80 mg/dL
  Serum Uric Acid, Observed, Mean (SD): 0.30 (0.000) mg/dL
  Serum Uric Acid, Observed, Median: 0.30 mg/dL
  sUA <6 mg/dL, n (%): 11 (100%)
Week 24 - Post-Infusion
  Serum Uric Acid, Change from Baseline, Mean (SD): −9.18 (4.135) mg/dL
  Serum Uric Acid, Change from Baseline, Median: -9.30 mg/dL
  Serum Uric Acid, Observed, Mean (SD): 0.30 (0.000) mg/dL
  Serum Uric Acid, Observed, Median: 0.30 mg/dL
  sUA <6 mg/dL, n (%): 5 (100%)
Week 24 - Pre-Infusion
  Serum Uric Acid, Change from Baseline, Mean (SD): −8.97 (2.810) mg/dL
  Serum Uric Acid, Change from Baseline, Median: -8.80 mg/dL
  Serum Uric Acid, Observed, Mean (SD): 0.30 (0.000) mg/dL
  Serum Uric Acid, Observed, Median: 0.30 mg/dL
  sUA <6 mg/dL, n (%): 11 (100%)
Week 26 - Pre-Infusion
  Serum Uric Acid, Change from Baseline, Mean (SD): −9.11 (3.293) mg/dL
  Serum Uric Acid, Change from Baseline, Median: -8.95 mg/dL
  Serum Uric Acid, Observed, Mean (SD): 0.30 (0.000) mg/dL
  Serum Uric Acid, Observed, Median: 0.30 mg/dL
  sUA <6 mg/dL, n (%): 8 (100%)
Week 28 - Pre-Infusion
  Serum Uric Acid, Change from Baseline, Mean (SD): −9.11 (3.293) mg/dL
  Serum Uric Acid, Change from Baseline, Median: -8.95 mg/dL
  Serum Uric Acid, Observed, Mean (SD): 0.30 (0.000) mg/dL
  Serum Uric Acid, Observed, Median: 0.30 mg/dL
  sUA <6 mg/dL, n (%): 8 (100%)
Week 30 - Pre-Infusion
  Serum Uric Acid, Change from Baseline, Mean (SD): −9.11 (3.293) mg/dL
  Serum Uric Acid, Change from Baseline, Median: -8.95 mg/dL
  Serum Uric Acid, Observed, Mean (SD): 0.30 (0.000) mg/dL
  Serum Uric Acid, Observed, Median: 0.30 mg/dL
  sUA <6 mg/dL, n (%): 8 (100%)
Week 32 - Post-Infusion
  Serum Uric Acid, Change from Baseline, Mean (SD): −9.11 (3.293) mg/dL
  Serum Uric Acid, Change from Baseline, Median: -8.95 mg/dL
  Serum Uric Acid, Observed, Mean (SD): 0.30 (0.000) mg/dL
  Serum Uric Acid, Observed, Median: 0.30 mg/dL
  sUA <6 mg/dL, n (%): 8 (100%)
Week 32 - Pre-Infusion
  Serum Uric Acid, Change from Baseline, Mean (SD): −8.99 (2.961) mg/dL
  Serum Uric Acid, Change from Baseline, Median: -8.95 mg/dL
  Serum Uric Acid, Observed, Mean (SD): 0.30 (0.000) mg/dL
  Serum Uric Acid, Observed, Median: 0.30 mg/dL
  sUA <6 mg/dL, n (%): 10 (100%)
Week 34 - Post-Infusion
  Serum Uric Acid, Change from Baseline, Mean (SD): −9.11 (3.293) mg/dL
  Serum Uric Acid, Change from Baseline, Median: -8.95 mg/dL
  Serum Uric Acid, Observed, Mean (SD): 0.30 (0.000) mg/dL
  Serum Uric Acid, Observed, Median: 0.30 mg/dL
  sUA <6 mg/dL, n (%): 8 (100%)
Week 34 - Pre-Infusion
  Serum Uric Acid, Change from Baseline, Mean (SD): −8.47 (3.248) mg/dL
  Serum Uric Acid, Change from Baseline, Median: -7.95 mg/dL
  Serum Uric Acid, Observed, Mean (SD): 0.82 (1.046) mg/dL
  Serum Uric Acid, Observed, Median: 0.30 mg/dL
  sUA <6 mg/dL, n (%): 10 (100%)
Week 36 - Post-Infusion
  Serum Uric Acid, Change from Baseline, Mean (SD): −9.38 (3.799) mg/dL
  Serum Uric Acid, Change from Baseline, Median: -9.20 mg/dL
  Serum Uric Acid, Observed, Mean (SD): 0.30 (0.000) mg/dL
  Serum Uric Acid, Observed, Median: 0.30 mg/dL
  sUA <6 mg/dL, n (%): 6 (100%)
Week 36 - Pre-Infusion
  Serum Uric Acid, Change from Baseline, Mean (SD): −7.90 (4.094) mg/dL
  Serum Uric Acid, Change from Baseline, Median: -8.60 mg/dL
  Serum Uric Acid, Observed, Mean (SD): 1.58 (2.425) mg/dL
  Serum Uric Acid, Observed, Median: 0.30 mg/dL
  sUA <6 mg/dL, n (%): 8 (88.9%)
Week 38 - Pre-Infusion
  Serum Uric Acid, Change from Baseline, Mean (SD): −8.41 (5.229) mg/dL
  Serum Uric Acid, Change from Baseline, Median: -8.60 mg/dL
  Serum Uric Acid, Observed, Mean (SD): 0.93 (1.583) mg/dL
  Serum Uric Acid, Observed, Median: 0.30 mg/dL
  sUA <6 mg/dL, n (%): 5 (100%)
Week 40 - Pre-Infusion
  Serum Uric Acid, Change from Baseline, Mean (SD): −11.30 (3.686) mg/dL
  Serum Uric Acid, Change from Baseline, Median: -9.80 mg/dL
  Serum Uric Acid, Observed, Mean (SD): 0.30 (0.000) mg/dL
  Serum Uric Acid, Observed, Median: 0.30 mg/dL
  sUA <6 mg/dL, n (%): 3 (100%)
Week 42 - Pre-Infusion
  Serum Uric Acid, Change from Baseline, Mean (SD): −11.30 (3.686) mg/dL
  Serum Uric Acid, Change from Baseline, Median: -9.80 mg/dL
  Serum Uric Acid, Observed, Mean (SD): 0.30 (0.000) mg/dL
  Serum Uric Acid, Observed, Median: 0.30 mg/dL
  sUA <6 mg/dL, n (%): 3 (100%)
Week 44 - Pre-Infusion
  Serum Uric Acid, Change from Baseline, Mean (SD): −10.55 (4.625) mg/dL
  Serum Uric Acid, Change from Baseline, Median: -9.80 mg/dL
  Serum Uric Acid, Observed, Mean (SD): 1.05 (1.305) mg/dL
  Serum Uric Acid, Observed, Median: 0.30 mg/dL
  sUA <6 mg/dL, n (%): 3 (100%)
Week 46 - Pre-Infusion
  Serum Uric Acid, Change from Baseline, Mean (SD): −12.65 (4.031) mg/dL
  Serum Uric Acid, Change from Baseline, Median: -12.65 mg/dL
  Serum Uric Acid, Observed, Mean (SD): 0.30 (0.000) mg/dL
  Serum Uric Acid, Observed, Median: 0.30 mg/dL
  sUA <6 mg/dL, n (%): 2 (100%)
Week 48 - Post-Infusion
  Serum Uric Acid, Change from Baseline, Mean (SD): −10.33 (4.922) mg/dL
  Serum Uric Acid, Change from Baseline, Median: -9.80 mg/dL
  Serum Uric Acid, Observed, Mean (SD): 1.60 (2.252) mg/dL
  Serum Uric Acid, Observed, Median: 0.30 mg/dL
  sUA <6 mg/dL, n (%): 3 (100%)
Week 48 - Pre-Infusion
  Serum Uric Acid, Change from Baseline, Mean (SD): −12.65 (4.031) mg/dL
  Serum Uric Acid, Change from Baseline, Median: -12.65 mg/dL
  Serum Uric Acid, Observed, Mean (SD): 0.30 (0.000) mg/dL
  Serum Uric Acid, Observed, Median: 0.30 mg/dL
  sUA <6 mg/dL, n (%): 2 (100%)
Week 50 - Post-Infusion
  Serum Uric Acid, Change from Baseline, Mean (SD): −10.57 (4.598) mg/dL
  Serum Uric Acid, Change from Baseline, Median: -9.80 mg/dL
  Serum Uric Acid, Observed, Mean (SD): 1.37 (1.848) mg/dL
  Serum Uric Acid, Observed, Median: 0.30 mg/dL
  sUA <6 mg/dL, n (%): 3 (100%)
Week 50 - Pre-Infusion
  Serum Uric Acid, Change from Baseline, Mean (SD): −12.65 (4.031) mg/dL
  Serum Uric Acid, Change from Baseline, Median: -12.65 mg/dL
  Serum Uric Acid, Observed, Mean (SD): 0.30 (0.000) mg/dL
  Serum Uric Acid, Observed, Median: 0.30 mg/dL
  sUA <6 mg/dL, n (%): 2 (100%)
Week 52/ET
  Serum Uric Acid, Change from Baseline, Mean (SD): −12.65 (4.031) mg/dL
  Serum Uric Acid, Change from Baseline, Median: -12.65 mg/dL
  Serum Uric Acid, Observed, Mean (SD): 0.30 (0.000) mg/dL
  Serum Uric Acid, Observed, Median: 0.30 mg/dL
  sUA <6 mg/dL, n (%): 2 (100%)
